Measurements published in patent US9701958B2, “Method for selecting polynucleotides encoding antigen-specific immunoglobulin subunits” (priority 2012, dated 2017).
Where two headings read alike, the source gives them in different places.

Assays:
VHE H5 HX-A56R NEO = format: cell-based, vaccinia virus
wild-type vaccinia virus = format: cell-based

CN[C@@H]1[C@@H](O)[C@@H](O[C@@H]2[C@@H](O)[C@H](O[C@H]3O[C@H]([C@@H](C)O)[C@@H](O)[C@H](O)[C@H]3N)[C@@H](N)C[C@H]2N)OC[C@]1(C)O [G418]
inhibition of amplification of vaccinia virus expressing heavy chain linked to a neomycin resistance marker (VHE H5 HX-A56R NEO): no inhibition effect
% Inhibition (VHE H5 HX-A56R NEO; G418 0.125 mg/ml): −26.7%
Titer (VHE H5 HX-A56R NEO; G418 0.125 mg/ml): 2.88E+07
% Inhibition (VHE H5 HX-A56R NEO; G418 0.25 mg/ml): −36.7%
Titer (VHE H5 HX-A56R NEO; G418 0.25 mg/ml): 3.11E+07
% Inhibition (VHE H5 HX-A56R NEO; G418 0.5 mg/ml): −50.0%
Titer (VHE H5 HX-A56R NEO; G418 0.5 mg/ml): 3.41E+07
% Inhibition (VHE H5 HX-A56R NEO; G418 1 mg/ml): −40.0%
Titer (VHE H5 HX-A56R NEO; G418 1 mg/ml): 3.18E+07
% Inhibition (VHE H5 HX-A56R NEO; G418 2 mg/ml): −33.3%
Titer (VHE H5 HX-A56R NEO; G418 2 mg/ml): 3.03E+07
inhibition of amplification of wild-type vaccinia virus (wild-type vaccinia virus; 0.125 to 2 mg/ml of G418, in words): significantly inhibited
% Inhibition (wild-type vaccinia virus; G418 0.125 mg/ml): 60.8%
Titer (wild-type vaccinia virus; G418 0.125 mg/ml): 1.58E+07
% Inhibition (wild-type vaccinia virus; G418 0.25 mg/ml): 79.4%
Titer (wild-type vaccinia virus; G418 0.25 mg/ml): 8.26E+06
% Inhibition (wild-type vaccinia virus; G418 0.5 mg/ml): 93.7%
Titer (wild-type vaccinia virus; G418 0.5 mg/ml): 2.54E+06
% Inhibition (wild-type vaccinia virus; G418 1 mg/ml): 96.6%
Titer (wild-type vaccinia virus; G418 1 mg/ml): 1.36E+06
% Inhibition (wild-type vaccinia virus; G418 2 mg/ml): 99.6%
Titer (wild-type vaccinia virus; G418 2 mg/ml): 1.59E+05
